Patent US10221171B2, “Oxathiazole thiazolium Hsp 70 inhibitors” (THE REGENTS OF THE UNIVERSITY OF CALIFORNIA, priority 2015, dated 2019)
Where two headings read alike, the source gives them in different places.

How the values were obtained:
Assay type in all cases: cell-based
[1] = tested on: MEF (C57BL/6); assay: MTT cell viability assay, MEF (C57BL/6); details: Mus musculus
Experimental: (§1) Cells were then treated with compound at various concentrations in 0.2 mL media. After the 72-hour incubation period, cells were washed in PBS (3×100 μL), and 10 μL MTT reagent was added with 100 μL fresh media. Cells were then incubated for 4 hr in a humidified chamber at 37° C. with 5% CO2. Insoluble formazan crystals were solubilized by addition of 0.1 mL detergent solution (4 hr at room temp., dark). Resulting colored solutions were then quantified at an absorbance of 570 nm.

[2] = tested on: MDA-MB-231; assay: MTT cell viability assay, MDA-MB-231; details: Homo sapiens
Experimental: as §1

[3] = tested on: MCF-7; assay: MTT cell viability assay, MCF-7; details: Homo sapiens, read-out: IC50/μM MCF-7
Experimental: as §1

[4] = MTT, 72-hour incubation, read-out: IC50/μM MEF (C57BL/6)
[5] = MDA-MB-231, 72 h, 72-hour incubation

| Structure (SMILES) | IC50 [1, 4] | IC50 [2, 5] | IC50 ([3]; MCF7, 72 h, MTT, 72-hour incubation) | IC50 ([2]; MDA-MB-231, 72-hour incubation) | IC50 ([3]; MCF7, MTT, 72-hour incubation) | IC50 ([3]; MCF7, 72 h) | IC50 ([1]; 72 h, read-out: IC50/μM MEF (C57BL/6), MTT, 72-hour incubation) |
| --- | --- | --- | --- | --- | --- | --- | --- |
| CCn1c(=O)/c(=C2\Sc3cc(OC)ccc3N2C)s/c1=C\c1scc[n+]1Cc1ccccc1 [JG-250] | 2 ± 0.1 µM | 0.16 ± 0.01 µM | 0.13 ± 0.01 µM | – | – | – | – |
| CCn1c(=O)/c(=C2\Sc3cc(OC)ccc3N2C)s/c1=C\c1scc[n+]1CCc1ccccc1Cl [JG-379] | 0.9 ± 0.01 µM | – | – | 0.2 ± 0.03 µM | 0.18 ± 0.01 µM | – | – |
| CCc1ccc2c(c1)S/C(=c1/s/c(=C\c3scc[n+]3C(C)c3ccccc3)n(CC)c1=O)N2C (stereo not drawn) [JG-320] | 1.3 ± 0.04 µM | – | – | 0.3 ± 0.05 µM | 0.1 ± 0.01 µM | – | – |
| CCn1c(=O)/c(=C2\Sc3cc(Cl)ccc3N2C)s/c1=C\c1scc[n+]1Cc1ccccc1OC(C)=O [JG-247] | 6.1 ± 0.3 µM | – | – | 1.8 ± 0.3 µM | 1.58 ± 0.18 µM | – | – |
| CCn1c(=O)/c(=C2\Sc3cc(OC)ccc3N2C)s/c1=C\c1scc[n+]1CCc1ccc(Cl)cc1 [JG-396] | 4 ± 0.2 µM | – | – | 0.2 ± 0.03 µM | 1.7 ± 0.3 µM | – | – |
| CCn1c(=O)/c(=C2\Sc3cc(OC)ccc3N2C)s/c1=C\c1scc[n+]1Cc1ccccc1OC(F)(F)F [JG-303] | 0.7 ± 0.01 µM | 0.053 ± 0.005 µM | – | – | – | 0.07 ± 0.003 µM | – |
| CCn1c(=O)/c(=C2\Sc3cc(F)ccc3N2C)s/c1=C\c1scc[n+]1Cc1ccccc1SC(F)(F)F [JG-254] | 1.5 ± 0.1 µM | – | – | 0.1 ± 0.01 µM | 0.65 ± 0.13 µM | – | – |
| CCn1c(=O)/c(=C2\Sc3cc(Cl)ccc3N2C)s/c1=C\c1scc[n+]1CCc1cccc(C(F)(F)F)c1 [JG-383] | 2.3 ± 0.2 µM | – | – | 0.74 ± 0.08 µM | 0.78 ± 0.06 µM | – | – |
| CCn1c(=O)/c(=C2\Sc3cc(C)ccc3N2C)s/c1=C\c1scc[n+]1CCc1ccccc1OC [JG-390] | 1.2 ± 0.1 µM | – | – | 0.12 ± 0.01 µM | 0.31 ± 0.04 µM | – | – |
| CCn1c(=O)/c(=C2\Sc3cc(C)ccc3N2C)s/c1=C\c1scc[n+]1CCc1ccccc1Cl [JG-380] | 0.94 ± 0.03 µM | – | – | 0.25 ± 0.03 µM | 0.2 ± 0.02 µM | – | – |
| CCn1c(=O)/c(=C2\Sc3cc(C(C)C)ccc3N2C)s/c1=C\c1scc[n+]1Cc1ccccc1C(F)(F)F [JG-326] | 0.45 ± 0.04 µM | – | – | 0.06 ± 0.007 µM | 0.069 ± 0.005 µM | – | – |
| CCc1ccc2c(c1)S/C(=c1/s/c(=C\c3scc[n+]3Cc3ccccc3SC(F)(F)F)n(CC)c1=O)N2C [JG-344] | 0.46 ± 0.03 µM | – | – | 0.17 ± 0.01 µM | 0.087 ± 0.007 µM | – | – |
| CCc1ccc2c(c1)S/C(=c1/s/c(=C\c3scc[n+]3Cc3ccccc3C)n(CC)c1=O)N2C [JG-296] | 0.61 ± 0.02 µM | – | – | 0.14 ± 0.01 µM | 0.1 ± 0.01 µM | – | – |
| CCn1c(=O)/c(=C2\Sc3cc(OC)ccc3N2C)s/c1=C\c1scc[n+]1CCc1ccccc1OC [JG-397] | 1.3 ± 0.1 µM | – | – | 0.083 ± 0.007 µM | 0.08 ± 0.008 µM | – | – |
| CCn1c(=O)/c(=C2\Sc3cc(F)ccc3N2C)s/c1=C\c1scc[n+]1Cc1cnc(Cl)s1 [JG-260] | 8.2 ± 0.4 µM | – | – | 6.7 ± 0.5 µM | > 5 µM | – | – |
| CCn1c(=O)/c(=C2\Sc3cc(Cl)ccc3N2C)s/c1=C\c1scc[n+]1Cc1ccccc1S(C)(=O)=O [JG-287] | > 10 µM | – | – | 1.3 ± 0.3 µM | 1.73 ± 0.2 µM | – | – |
| CCn1c(=O)/c(=C2\Sc3cc(C)ccc3N2C)s/c1=C\c1scc[n+]1CCc1cccc(Cl)c1 [JG-382] | 1.2 ± 0.1 µM | – | – | 0.46 ± 0.06 µM | 0.59 ± 0.03 µM | – | – |
| CCn1c(=O)/c(=C2\Sc3cc(F)ccc3N2C)s/c1=C\c1scc[n+]1Cc1ccccc1CO [JG-330] | > 10 µM | – | – | 1.93 ± 0.27 µM | 1.08 ± 0.14 µM | – | – |
| CCn1c(=O)/c(=C2\Sc3cc(F)ccc3N2C)s/c1=C\c1scc[n+]1Cc1ccccc1C(=O)OC [JG-332] | 2 ± 0.1 µM | – | – | 0.26 ± 0.03 µM | 0.22 ± 0.03 µM | – | – |
| CCn1c(=O)/c(=C2\Sc3cc(F)ccc3N2C)s/c1=C\c1scc[n+]1[C@H](C)c1ccccc1 [JG-340] | 1.5 ± 0.05 µM | – | – | 0.38 ± 0.03 µM | 0.24 ± 0.03 µM | – | – |
| CCn1c(=O)/c(=C2\Sc3cc(OC)ccc3N2C)s/c1=C\c1scc[n+]1Cc1ccccc1C(F)(F)F [JG-304] | 1.4 ± 0.06 µM | – | – | 0.1 ± 0.02 µM | 0.12 ± 0.01 µM | – | – |
| CCn1c(=O)/c(=C2\Sc3cc([N+](=O)[O-])ccc3N2C)s/c1=C\c1scc[n+]1Cc1ccccc1 [JG-252] | – | 4.8 ± 0.4 µM | – | – | > 5 µM | – | 2.8 ± 0.1 µM |
| CCn1c(=O)/c(=C2\Sc3cc(Cl)ccc3N2C)s/c1=C\c1scc[n+]1[C@H](C)c1ccccc1 [JG-339] | 1.5 ± 0.08 µM | – | – | 0.19 ± 0.02 µM | 0.37 ± 0.04 µM | – | – |
| CCn1c(=O)/c(=C2\Sc3cc(F)ccc3N2C)s/c1=C\c1scc[n+]1Cc1c(C)noc1C [JG-268] | > 10 µM | – | – | > 20 µM | > 5 µM | – | – |
| CCn1c(=O)/c(=C2\Sc3cc(SC)ccc3N2C)s/c1=C\c1scc[n+]1Cc1ccc(C(F)(F)F)o1 [JG-314] | 4.8 ± 0.9 µM | – | – | 0.25 ± 0.04 µM | 0.57 ± 0.08 µM | – | – |
